≈ marks a conversion by molar mass, not a printed value.
Tested on: not listed separately
Experiment: Determination of kinetic solubility (pH 7.4)
Format: physicochemical
Conditions: phosphate buffer, pH 7.4, aqueous buffer, kinetic from dmso stock, 50 mM phosphate buffer pH 7.4, read-out: Ksol, pH 7.4
Experimental: 490 μL of a 50 mM phosphate buffer (pH 7.4) was added to the sample solution. The mixture was vortexed for at least 2 minutes. The vial was shaken on a Barnstead shaker at 800 rpm at room temperature for 2 hours. The vial was centrifuged at 4000 rpm for 20 minutes. The Mini-UniPrep vial was compressed to prepare a filtrate, which was injected into an HPLC-UV and LC-MS/MS system. Kinetic solubility was calculated by referencing sample peak areas to a standard calibration curve.
In the case of `Cc1cc(N)nc(C2Cc3nc(OC[C@@]45CCCN4C[C@H](F)C5)nc(N4CCN(C(=O)/C=C/CN5CCOCC5)[C@@H](CC#N)C4)c3CC2C)c1C(F)(F)F` (stereo partly drawn) [Example 67, 2-((2S)-4-(7-(6-amino-4-methyl-3-(trifluoromethyl)pyridin-2-yl)-2-(((2R,7aS)-2-fluorotetrahydro-1H-pyrrolizin-7a(5H)-yl)methoxy)-6-methyl-5,6,7,8-tetrahydroquinazolin-4-yl)-1-((E)-4-morpholinobut-2-enoyl)piperazin-2-yl)acetonitrile], the solubility kinetic at 2 h is reported as 78.2 µg/mL (≈ 103 µM).

Tested on: not listed separately
Experiment: Determination of logD (1-octanol / phosphate buffer pH 7.4)
Format: physicochemical
Conditions: 1-octanol/phosphate buffer, pH 7.4, pH 7.4, 1-octanol/phosphate buffer; read-out: Log D, pH 7.4
Experimental: Preparation of phosphate buffer saturated with 1-octanol: 10 mL of 100 mM phosphate buffer (pH 7.4) was added to 100 mL of 1-octanol. The mixture was shaken vigorously and left to stand at room temperature overnight.
Preparation of 1-octanol saturated with phosphate buffer: 10 mL of 1-octanol was added to 100 mL of 100 mM phosphate buffer (pH 7.4). The mixture was shaken vigorously and left to stand at room temperature overnight.
149 μL of phosphate buffer saturated with 1-octanol was added into 1st sample tube. 149 μL of 1-octanol saturated with phosphate buffer was added into the 2nd sample tube. The sample tubes were mixed vigorously and shaken for 1 hour at a speed of 800 rpm at room temperature. The sample tubes were subjected to centrifugation at 4000 rpm for 5 minutes at room temperature. Samples of the supernatant were taken from both tubes, diluted with an appropriate LCMS buffer, and analyzed on an LCMS instrument. LogD was calculated according to the following equation.
`Cc1cc(N)nc(C2Cc3nc(OC[C@@]45CCCN4C[C@H](F)C5)nc(N4CCN(C(=O)/C=C/CN5CCOCC5)[C@@H](CC#N)C4)c3CC2C)c1C(F)(F)F` (mixture of isomers) [Example 67, 2-((2S)-4-(7-(6-amino-4-methyl-3-(trifluoromethyl)pyridin-2-yl)-2-(((2R,7aS)-2-fluorotetrahydro-1H-pyrrolizin-7a(5H)-yl)methoxy)-6-methyl-5,6,7,8-tetrahydroquinazolin-4-yl)-1-((E)-4-morpholinobut-2-enoyl)piperazin-2-yl)acetonitrile] gave a logD of 2.98.

Target: KRAS G12C (GMPPNP-loaded) and cRAF (Ras-binding domain) interaction (Homo sapiens (Human), UniProt P01116, C118S/C51S/C80L/G12C)
Sequence (P01116 other isoform, or with tags, fused parts or gaps G12C/C51S/C80L/C118S): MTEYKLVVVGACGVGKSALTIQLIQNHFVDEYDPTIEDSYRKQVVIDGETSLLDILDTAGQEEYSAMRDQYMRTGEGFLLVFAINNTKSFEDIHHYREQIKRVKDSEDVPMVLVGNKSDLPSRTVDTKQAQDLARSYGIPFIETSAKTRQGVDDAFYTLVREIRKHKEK
Experiment: Inhibition of KRAS G12C and cRAF binding (AlphaScreen)
Conditions: KRAS G12C loaded with GMPPNP, cRaf RBD, 2 hours preincubation; read-out: Raf-1 RBD K-Ras IC50
Experimental: Compounds were diluted in 100% DMSO and each compound concentration was spotted at 200 nl/well onto low volume, white 384 well plates. […] KRAS G12C was preloaded with the GTP analogue Guanosine 5′-[β,γ-imido]triphosphate (GMPPNP). The KRAS G12C was diluted in 25 mM Hepes, pH 7.4, 150 mM NaCl, 5 mM MgCl2, 0.01% TritonX-100 and 10 μM GMPPNP and added at 10 ul/well to compound-spotted plates resulting in a DMSO concentration of 2%. Plates were incubated for 2 hours. A mixture of RBD and the AlphaScreen streptavidin donor and glutathione acceptor beads diluted in 25 mM Hepes, pH 7.4, 150 mM NaCl, 5 mM MgCl2, 0.01% TritonX-100 and 2% DMSO was then added at 10 ul/well and incubated for 60-90 minutes before the samples were read for emission at 570 nm after excitation of the donor beads at 680 nm. All incubations were performed at room temperature. The final top compound concentration was 50 μM with 1:3 titrations for 10-point dose response curves. […] IC50S were determined using nonlinear regression fit of [inhibitor] vs. response (4 parameters). […]
Molecule `Cn1cnc(/C=C/C(=O)N2CCN(c3nc(OC[C@@]45CCCN4C[C@H](F)C5)nc4c(F)c(-c5cccc6cccc(Cl)c56)ncc34)C[C@@H]2CC#N)n1` [Compound 40] has an IC50 of over 0.5 µM. In the case of `N#CC[C@H]1CN(c2nc(OCC34CCCN3CCC4)nc3c2CCN(c2cccc4cccc(Cl)c24)C3)CCN1C(=O)/C=C/CN1CC2CC2C1` (stereo partly shown) [Compound 204], the IC50 is reported as under 0.01 µM. Molecule `N#CC[C@H]1CN(c2nc(OCC34CCCN3CCC4)nc3c2CCN(c2cccc4cccc(Cl)c24)C3)CCN1C(=O)/C=C/CN1CC(F)(F)C1` [Compound 177] has an IC50 of 0.01 to 0.1 µM. With `N#CC[C@H]1CN(c2nc(OC[C@@]34CCCN3C[C@H](F)C4)nc3c(F)c(-c4cccc(Cl)c4C(F)(F)F)ncc23)CCN1C(=O)/C=C/CN1CCOCC1` [Compound 296] the IC50 was under 0.01 µM. `CO[C@@H]1CCN(C/C=C/C(=O)N2CCN(c3nc(OCC45CCCN4CCC5)nc4c3CCN(c3cccc5cccc(Cl)c35)C4)C[C@@H]2CC#N)C1` [Compound 173] gave an IC50 of under 0.01 µM. With `C[C@@H]1CN(C/C=C/C(=O)N2CCN(c3nc(OC[C@@]45CCCN4C[C@H](F)C5)nc4c(F)c(-c5cccc(Cl)c5C5CC5)ncc34)C[C@@H]2CC#N)C[C@@H](C)O1` [Compound 301] the IC50 was 0.01 to 0.1 µM. `N#CC[C@H]1CN(c2nc(OCC34CCCN3CCC4)nc3c2CCN(c2cccc4cccc(Cl)c24)C3)CCN1C(=O)/C=C/CN1CC[C@H](F)C1` [Compound 174] showed an IC50 of under 0.01 µM. Molecule `N#CC[C@H]1CN(c2nc(OC[C@@]34CCCN3C[C@H](F)C4)nc3c(F)c(-c4cccc5ccc(F)c(F)c45)ncc23)CCN1C(=O)/C=C/CN1CCn2ccnc2C1` [Compound 263] has an IC50 of 0.01 to 0.1 µM. In the case of `Cn1cnc(/C=C/C(=O)N2CCN(c3nc(OC[C@@]45CCCN4C[C@H](F)C5)nc4c3CCN(c3cccc5cccc(Cl)c35)C4)C[C@@H]2CC#N)n1` [Compound 43], the IC50 is reported as over 0.5 µM. For `N#CC[C@H]1CN(c2nc(OCC34CCCN3CCC4)nc3c2CCN(c2cccc4cccc(Cl)c24)C3)CCN1C(=O)/C=C/CN1C[C@H]2C[C@@H]1CO2` [Compound 63], the IC50 was under 0.01 µM. Molecule `Cc1nccc(/C=C/C(=O)N2CCN(c3nc(OC[C@@]45CCCN4C[C@H](F)C5)nc4c(F)c(-c5cccc6c(C)c(F)ccc56)ncc34)C[C@@H]2CC#N)n1` [Compound 260] has an IC50 of over 0.5 µM. `C[C@@H]1CN(C/C=C/C(=O)N2CCN(c3nc(OCC45CCCN4CCC5)nc4c3CCN(c3cccc5cccc(Cl)c35)C4)C[C@@H]2CC#N)C[C@@H](C)O1` [Compound 197] gave an IC50 of 0.01 to 0.1 µM. With `N#CC[C@H]1CN(c2nc(OCC34CCCN3CCC4)nc3c2CCN(c2cccc4cccc(Cl)c24)C3)CCN1C(=O)/C=C/CN1C2COCC1C2` [Compound 199] the IC50 was under 0.01 µM. `CC(C)N1CC[C@@H]1/C=C/C(=O)N1CCN(c2nc(OC[C@@]34CCCN3C[C@H](F)C4)nc3c(F)c(-c4cccc(Cl)c4C4CC4)ncc23)C[C@@H]1CC#N` [Compound 313] gave an IC50 of 0.1 to 0.5 µM. `N#CC[C@H]1CN(c2nc(OC[C@@]34CCCN3C[C@H](F)C4)nc3c(F)c(-c4cccc5cccc(Cl)c45)ncc23)CCN1C(=O)/C=C/CN1CC[C@@H](OC(F)F)C1` [Compound 304] gave an IC50 of under 0.01 µM. Work on `Cc1nccc(/C=C/C(=O)N2CCN(c3nc(OC[C@@]45CCCN4C[C@H](F)C5)nc4c(F)c(-c5n[nH]c6cccc(Cl)c56)ncc34)C[C@@H]2CC#N)n1` [Compound 230] yielded an IC50 of over 0.5 µM. Molecule `CCc1c(Cl)cccc1-c1ncc2c(N3CCN(C(=O)/C=C/CN4[C@@H]5CC[C@H]4COC5)[C@@H](CC#N)C3)nc(OC[C@@]34CCCN3C[C@H](F)C4)nc2c1F` [Compound 281] has an IC50 of 0.01 to 0.1 µM. `C[C@@H](F)c1noc(/C=C/C(=O)N2CCN(c3nc(OC[C@@]45CCCN4C[C@H](F)C5)nc4c(F)c(-c5cccc6cccc(Cl)c56)ncc34)C[C@@H]2CC#N)n1` [Compound 130] showed an IC50 of 0.01 to 0.1 µM. For `Cc1cc(N)nc(C2Cc3nc(OC[C@@]45CCCN4C[C@H](F)C5)nc(N4CCN(C(=O)/C=C/CN5CCOCC5)[C@@H](CC#N)C4)c3CC2C)c1C(F)(F)F` (mixture of isomers) [Example 67, 2-((2S)-4-(7-(6-amino-4-methyl-3-(trifluoromethyl)pyridin-2-yl)-2-(((2R,7aS)-2-fluorotetrahydro-1H-pyrrolizin-7a(5H)-yl)methoxy)-6-methyl-5,6,7,8-tetrahydroquinazolin-4-yl)-1-((E)-4-morpholinobut-2-enoyl)piperazin-2-yl)acetonitrile], the IC50 was 0.01 to 0.1 µM. With `N#CC[C@H]1CN(c2nc(OCC34CCCN3CCC4)nc3c2CCN(c2cccc4cccc(Cl)c24)C3)CCN1C(=O)/C=C/CN1CC2CC(C1)O2` [Compound 166] the IC50 was under 0.01 µM. `C[C@H](F)c1noc(/C=C/C(=O)N2CCN(c3nc(OC[C@@]45CCCN4C[C@H](F)C5)nc4c(F)c(-c5cccc6cccc(Cl)c56)ncc34)C[C@@H]2CC#N)n1` [Compound 137] gave an IC50 of 0.01 to 0.1 µM. Work on `Cc1c(F)ccc2c(-c3ncc4c(N5CCN(C(=O)/C=C/CN6CCOCC6)[C@@H](CC#N)C5)nc(OC[C@@]56CCCN5C[C@H](F)C6)nc4c3F)cccc12` [Compound 252] yielded an IC50 of 0.1 to 0.5 µM. `N#CC[C@H]1CN(c2nc(OC[C@@]34CCCN3C[C@H](F)C4)nc3c(F)c(-c4cccc5cccc(F)c45)ncc23)CCN1C(=O)/C=C/CN1C2COCC1C2` [Compound 248] gave an IC50 of 0.01 to 0.1 µM. Molecule `N#CC[C@H]1CN(c2nc(OC[C@@]34CCCN3C[C@H](F)C4)nc3c(F)c(-c4nc(N)cc5cccc(Cl)c45)ncc23)CCN1C(=O)/C=C/CN1CCOCC1` [Compound 59] has an IC50 of under 0.01 µM. `CC(C)c1noc(/C=C/C(=O)N2CCN(c3nc(OC[C@@]45CCCN4C[C@H](F)C5)nc4c3CCN(c3cccc5cccc(Cl)c35)C4)C[C@@H]2CC#N)n1` [Compound 125] gave an IC50 of 0.01 to 0.1 µM. `C[C@H]1CN(C/C=C/C(=O)N2CCN(c3nc(OCC45CCCN4CCC5)nc4c3CCN(c3cccc5cccc(Cl)c35)C4)C[C@@H]2CC#N)C[C@H](C)O1` [Compound 198] showed an IC50 of under 0.01 µM. In the case of `CC1(/C=C/C(=O)N2CCN(c3nc(OCC45CCCN4CCC5)nc4c3CCN(c3cccc5cccc(Cl)c35)C4)C[C@@H]2CC#N)COC1` [Compound 116], the IC50 is reported as over 0.5 µM. For `Cc1nccc(/C=C/C(=O)N2CCN(c3nc(OCC45CCCN4CCC5)nc4c3CCN(c3cccc5ccc(F)c(Cl)c35)C4)C[C@@H]2CC#N)n1` [Compound 206], the IC50 was 0.1 to 0.5 µM. Molecule `CC(F)(F)c1noc(/C=C/C(=O)N2CCN(c3nc(OCC45CCCN4CCC5)nc4c3CCN(c3cccc5cccc(Cl)c35)C4)C[C@@H]2CC#N)n1` [Compound 41] has an IC50 of 0.01 to 0.1 µM. With `N#CC[C@H]1CN(c2nc(OC[C@@]34CCCN3C[C@H](F)C4)nc3c(F)c(-c4cccc5cccc(Cl)c45)ncc23)CCN1C(=O)/C=C/CN1CC[C@H](OC(F)F)C1` [Compound 303] the IC50 was under 0.01 µM. Work on `N#CC[C@H]1CN(c2nc(OCC34CCCN3CCC4)nc3c2CCN(c2cccc4cccc(Cl)c24)C3)CCN1C(=O)/C=C/c1cnccn1` [Compound 39] yielded an IC50 of over 0.5 µM. `CC(C)c1noc(/C=C/C(=O)N2CCN(c3nc(OC[C@@]45CCCN4C[C@H](F)C5)nc4c(F)c(-c5nc(N)cc6cccc(F)c56)ncc34)C[C@@H]2CC#N)n1` [Compound 134] showed an IC50 of 0.01 to 0.1 µM. With `N#CC[C@H]1CN(c2nc(OCC34CCCN3CCC4)nc3c(F)c(-c4cccc5ccc(F)c(Cl)c45)ncc23)CCN1C(=O)/C=C/CN1CCOCC1` [Compound 179] the IC50 was under 0.01 µM. For `Cc1nccc(/C=C/C(=O)N2CCN(c3nc(OC[C@@]45CCCN4C[C@H](F)C5)nc4c(F)c(-c5c(C)cc(F)c6[nH]ncc56)ncc34)C[C@@H]2CC#N)n1` [Compound 212], the IC50 was 0.1 to 0.5 µM. For `Cc1nccc(/C=C/C(=O)N2CCN(c3nc(OC[C@@]45CCCN4C[C@H](F)C5)nc4c(F)c(-c5cccc6ccccc56)ncc34)C[C@@H]2CC#N)n1` [Compound 210], the IC50 was 0.1 to 0.5 µM.
